# Experimental data as given in patent publication US7081092B2, “Methods and apparatus for monitoring and quantifying the movement of fluid” (IMCOR Pharmaceutical Company, priority 1994, dated 2006).
# Columns and labels:
# Format in all cases: physicochemical
# [1] = Solubility in water
# Text: (§1) In order to stabilize microbubbles in this fashion and provide desirable harmonic characteristics, the osmotic agent is preferably present in the gas phase of the bubble at a mole fraction concentration of greater than approximately 2%, and more preferably at about 5%, 10%, 25%, 50%, or 100%. The vapor inside the bubble is preferably near saturation under the conditions of examination, preferably at least about 50%, 75% or 100% of the saturation concentration. Thus, for microbubbles used for imaging in a human, the liquid phase of the vapor in the bubble must have a vapor pressure at 37° C. greater than 2% of the pressure inside the bubble (one atmosphere plus the blood pressure of the human being examined plus the pressure caused by the surface tension of the bubble, the LaPlace pressure). This total pressure for 3 micron bubbles could reach 1.5 bar and thus requires the liquid phase of the vapor in the bubble to have a vapor pressure at 37° C. greater than approximately 23 torr. The liquid phase of the vapor should also have a low solubility in water, preferably less than 1% wt./wt.
# In such systems, suitable gases are ones that have a solubility/miscibility of their liquid forms with hexane, which is a model for the hydrophobic region of surfactants, of greater than 10% mole/mole at 37° C. […]
# [2] = Vapor pressure at 37° C.
# Text: as §1
# [3] = Solubility/miscibility of liquid form with hexane
# Protocol: In such systems, suitable gases are ones that have a solubility/miscibility of their liquid forms with hexane, which is a model for the hydrophobic region of surfactants, of greater than 10% mole/mole at 37° C. For gases with a boiling point below 37° C., e.g. butane and perfluorobutane, this measurement must be carried out at elevated pressure. The adsorbing gas should be present in the bubble gas phase at a concentration of more than 2% by mole fraction of the gas mixture and preferably at about 5%, 10%, 25%, 50%, or 100%. The use of fluorinated surfactants with fluorinated gases is preferred. The liquid phase of the adsorbing gas should be relatively insoluble in water, less than 1% wt./wt. solubility/miscibility.
Structure (SMILES),Water solubility [1],Vapor pressure [2],Solubility in hexane [3],Solubility in water and hexane versus criteria for adsorption in surfactant layer [3]
FC(F)(F)C(F)(F)C(F)(F)C(F)(F)C(F)(F)C(F)(F)F [perfluorohexane],less than 1 % wt./wt.,over 23 torr,,
FC(F)(F)C(F)(F)C(F)(F)C(F)(F)F [perfluorobutane],less than 1 % wt./wt.,,greater than 10 % mole/mole,
FC(F)(F)C(F)(F)C(F)(F)C(F)(F)C(F)(F)F [perfluoropentane],,,,meet the criteria above
